Experiment [1] addresses T1, Alpha-2A adrenergic receptor (Homo sapiens, UniProt P08913).
T1 sequence (P08913 whole entry): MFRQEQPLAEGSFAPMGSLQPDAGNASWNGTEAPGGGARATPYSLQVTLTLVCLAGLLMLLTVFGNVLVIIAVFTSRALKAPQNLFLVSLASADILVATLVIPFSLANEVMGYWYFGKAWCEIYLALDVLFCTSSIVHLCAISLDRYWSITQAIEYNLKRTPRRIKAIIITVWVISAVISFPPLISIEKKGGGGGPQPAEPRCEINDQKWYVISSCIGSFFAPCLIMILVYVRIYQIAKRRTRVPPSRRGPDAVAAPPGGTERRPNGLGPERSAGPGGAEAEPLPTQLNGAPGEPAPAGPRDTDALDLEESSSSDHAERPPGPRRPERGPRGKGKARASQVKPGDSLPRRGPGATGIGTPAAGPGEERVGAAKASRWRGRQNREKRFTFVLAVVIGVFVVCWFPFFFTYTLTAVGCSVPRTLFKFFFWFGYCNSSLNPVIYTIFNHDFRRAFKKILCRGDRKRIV
It counts as functional, cell-based.

Experiment [2] has as its target T1, Alpha-2A adrenergic receptor.
Experiment [3] deals with T2, Alpha-2C adrenergic receptor (Homo sapiens, UniProt P18825).
T2 sequence (P18825 whole entry): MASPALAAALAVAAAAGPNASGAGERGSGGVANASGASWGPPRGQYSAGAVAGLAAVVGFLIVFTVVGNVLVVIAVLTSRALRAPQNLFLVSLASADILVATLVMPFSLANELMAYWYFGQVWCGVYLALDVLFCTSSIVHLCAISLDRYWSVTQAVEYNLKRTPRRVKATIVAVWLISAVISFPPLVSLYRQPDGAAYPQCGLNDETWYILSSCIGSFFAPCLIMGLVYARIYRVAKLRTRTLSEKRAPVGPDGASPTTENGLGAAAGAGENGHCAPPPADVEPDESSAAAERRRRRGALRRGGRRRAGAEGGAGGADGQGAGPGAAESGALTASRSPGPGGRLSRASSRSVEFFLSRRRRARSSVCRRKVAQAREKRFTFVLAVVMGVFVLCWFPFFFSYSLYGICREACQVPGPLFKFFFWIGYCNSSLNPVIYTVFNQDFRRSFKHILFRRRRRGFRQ
It counts as functional.

A further experiment addresses Cannabinoid receptor 1 (Homo sapiens, UniProt P21554). Format: functional, cell-based.
The next experiment addresses D(3) dopamine receptor (Homo sapiens, UniProt P35462).
The target in experiment [4] is Gamma-aminobutyric acid receptor subunit alpha-1 (Rattus norvegicus, UniProt P62813).
Chain of Gamma-aminobutyric acid receptor subunit alpha-1 (P62813 whole entry): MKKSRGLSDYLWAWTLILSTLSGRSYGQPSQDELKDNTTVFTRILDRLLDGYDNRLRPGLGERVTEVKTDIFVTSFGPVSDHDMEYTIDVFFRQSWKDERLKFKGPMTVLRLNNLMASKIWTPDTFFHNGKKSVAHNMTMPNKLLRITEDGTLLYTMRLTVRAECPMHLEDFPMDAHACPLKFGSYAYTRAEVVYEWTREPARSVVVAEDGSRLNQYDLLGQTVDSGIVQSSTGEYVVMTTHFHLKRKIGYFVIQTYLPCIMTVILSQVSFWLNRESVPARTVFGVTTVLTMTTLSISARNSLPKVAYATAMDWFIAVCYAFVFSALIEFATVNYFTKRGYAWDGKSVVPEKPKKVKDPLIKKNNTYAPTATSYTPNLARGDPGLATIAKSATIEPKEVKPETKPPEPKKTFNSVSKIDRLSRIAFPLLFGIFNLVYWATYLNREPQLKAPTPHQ
Experiment [5] concerns the target Glutamate receptor ionotropic, NMDA 1 (Rattus norvegicus, UniProt P35439).
The next experiment concerns the target Histamine H3 receptor (Homo sapiens, UniProt Q9Y5N1).
Experiment [6] addresses T3, 5-hydroxytryptamine receptor 1A (Homo sapiens, UniProt P08908).
T3 sequence (P08908 whole entry): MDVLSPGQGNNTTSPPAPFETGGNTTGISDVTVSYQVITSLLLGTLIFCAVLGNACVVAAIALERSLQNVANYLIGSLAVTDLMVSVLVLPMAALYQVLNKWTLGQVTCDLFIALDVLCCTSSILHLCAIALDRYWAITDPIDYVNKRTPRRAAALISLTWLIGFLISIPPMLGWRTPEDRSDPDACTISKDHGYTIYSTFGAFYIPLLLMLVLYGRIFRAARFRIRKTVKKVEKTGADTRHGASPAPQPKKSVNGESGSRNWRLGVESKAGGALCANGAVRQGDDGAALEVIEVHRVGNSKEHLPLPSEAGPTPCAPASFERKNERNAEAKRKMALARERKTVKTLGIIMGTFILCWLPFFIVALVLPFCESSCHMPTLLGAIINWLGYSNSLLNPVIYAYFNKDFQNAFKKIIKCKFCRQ

The target in experiment [7] is T4, 5-hydroxytryptamine receptor 2C (Homo sapiens, UniProt P28335).
T4 sequence (P28335 whole entry): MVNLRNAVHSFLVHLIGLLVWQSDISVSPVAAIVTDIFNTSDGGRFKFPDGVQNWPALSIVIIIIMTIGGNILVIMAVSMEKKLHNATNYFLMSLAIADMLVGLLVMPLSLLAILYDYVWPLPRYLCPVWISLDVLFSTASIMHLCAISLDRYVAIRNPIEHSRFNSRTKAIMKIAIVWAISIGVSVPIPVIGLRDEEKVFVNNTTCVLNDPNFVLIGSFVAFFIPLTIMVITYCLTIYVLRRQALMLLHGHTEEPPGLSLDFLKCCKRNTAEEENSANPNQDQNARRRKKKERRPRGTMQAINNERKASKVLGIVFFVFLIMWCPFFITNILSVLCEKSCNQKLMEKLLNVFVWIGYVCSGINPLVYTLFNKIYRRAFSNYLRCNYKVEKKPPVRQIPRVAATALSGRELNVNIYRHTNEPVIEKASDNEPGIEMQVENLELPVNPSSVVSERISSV

Experiment [8] concerns the target Kappa-type opioid receptor (Homo sapiens, UniProt P41145).
The target in experiment [9] is T5, Amine oxidase [flavin-containing] A (Homo sapiens, UniProt P21397).
T5 sequence (P21397 whole entry): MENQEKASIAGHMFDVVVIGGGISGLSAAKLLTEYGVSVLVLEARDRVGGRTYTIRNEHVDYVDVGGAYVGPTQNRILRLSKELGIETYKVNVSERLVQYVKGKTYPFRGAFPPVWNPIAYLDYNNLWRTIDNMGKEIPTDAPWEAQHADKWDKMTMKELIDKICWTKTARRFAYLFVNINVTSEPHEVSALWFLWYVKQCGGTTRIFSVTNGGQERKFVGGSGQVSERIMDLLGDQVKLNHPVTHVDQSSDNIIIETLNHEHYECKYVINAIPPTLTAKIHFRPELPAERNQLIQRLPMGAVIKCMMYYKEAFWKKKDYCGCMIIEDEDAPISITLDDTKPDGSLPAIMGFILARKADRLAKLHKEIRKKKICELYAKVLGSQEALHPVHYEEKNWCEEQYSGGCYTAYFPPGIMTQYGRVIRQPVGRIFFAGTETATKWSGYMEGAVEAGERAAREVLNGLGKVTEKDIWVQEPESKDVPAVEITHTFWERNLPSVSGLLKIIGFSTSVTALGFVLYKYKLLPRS
Format: functional.

The target of experiment [10] is Gamma-aminobutyric acid receptor subunit alpha-1/alpha-2/beta-2/gamma-2 (Homo sapiens, UniProt P14867+P18507+P47869+P47870). It counts as protein-complex assay.
Chain of Gamma-aminobutyric acid receptor subunit alpha-1/alpha-2/beta-2/gamma-2 (P14867 whole entry): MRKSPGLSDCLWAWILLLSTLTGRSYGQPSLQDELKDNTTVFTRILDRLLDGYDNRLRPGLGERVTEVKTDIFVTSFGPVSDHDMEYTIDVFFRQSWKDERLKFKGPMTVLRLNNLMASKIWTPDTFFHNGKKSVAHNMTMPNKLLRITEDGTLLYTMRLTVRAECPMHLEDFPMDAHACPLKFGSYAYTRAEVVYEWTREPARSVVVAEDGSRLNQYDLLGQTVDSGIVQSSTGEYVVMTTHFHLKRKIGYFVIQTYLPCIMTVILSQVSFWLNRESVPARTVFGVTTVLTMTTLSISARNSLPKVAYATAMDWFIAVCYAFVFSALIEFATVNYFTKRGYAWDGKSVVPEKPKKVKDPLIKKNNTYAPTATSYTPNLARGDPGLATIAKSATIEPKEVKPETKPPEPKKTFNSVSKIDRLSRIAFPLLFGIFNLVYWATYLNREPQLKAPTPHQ
Chain of Gamma-aminobutyric acid receptor subunit alpha-1/alpha-2/beta-2/gamma-2 (P47870 whole entry): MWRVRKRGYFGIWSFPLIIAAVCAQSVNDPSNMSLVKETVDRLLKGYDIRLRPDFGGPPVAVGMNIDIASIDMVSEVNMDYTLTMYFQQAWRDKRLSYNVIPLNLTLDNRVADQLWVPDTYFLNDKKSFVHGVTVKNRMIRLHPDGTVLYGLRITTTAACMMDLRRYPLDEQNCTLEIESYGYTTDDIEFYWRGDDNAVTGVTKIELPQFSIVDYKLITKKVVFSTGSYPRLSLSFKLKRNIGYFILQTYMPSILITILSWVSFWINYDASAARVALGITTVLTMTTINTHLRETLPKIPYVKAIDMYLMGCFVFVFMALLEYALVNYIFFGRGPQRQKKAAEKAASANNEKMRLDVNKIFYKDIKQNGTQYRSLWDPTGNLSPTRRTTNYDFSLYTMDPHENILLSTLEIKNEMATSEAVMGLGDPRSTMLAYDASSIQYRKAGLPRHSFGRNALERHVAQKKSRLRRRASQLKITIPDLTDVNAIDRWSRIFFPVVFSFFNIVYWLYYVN
Chain of Gamma-aminobutyric acid receptor subunit alpha-1/alpha-2/beta-2/gamma-2 (P18507 whole entry): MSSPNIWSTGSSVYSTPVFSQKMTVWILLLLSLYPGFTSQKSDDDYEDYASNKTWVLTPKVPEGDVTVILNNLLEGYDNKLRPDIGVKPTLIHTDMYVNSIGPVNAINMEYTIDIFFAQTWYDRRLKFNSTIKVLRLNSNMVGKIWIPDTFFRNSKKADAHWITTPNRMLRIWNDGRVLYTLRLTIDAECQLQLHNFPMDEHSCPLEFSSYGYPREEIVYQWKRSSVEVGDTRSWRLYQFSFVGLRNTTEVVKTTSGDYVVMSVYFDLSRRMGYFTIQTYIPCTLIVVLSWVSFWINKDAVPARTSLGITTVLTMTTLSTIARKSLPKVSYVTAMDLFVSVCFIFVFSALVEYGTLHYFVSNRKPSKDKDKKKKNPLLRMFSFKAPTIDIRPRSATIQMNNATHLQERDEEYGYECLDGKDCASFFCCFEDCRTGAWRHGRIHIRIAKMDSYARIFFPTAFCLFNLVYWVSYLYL
Chain of Gamma-aminobutyric acid receptor subunit alpha-1/alpha-2/beta-2/gamma-2 (P47869 whole entry): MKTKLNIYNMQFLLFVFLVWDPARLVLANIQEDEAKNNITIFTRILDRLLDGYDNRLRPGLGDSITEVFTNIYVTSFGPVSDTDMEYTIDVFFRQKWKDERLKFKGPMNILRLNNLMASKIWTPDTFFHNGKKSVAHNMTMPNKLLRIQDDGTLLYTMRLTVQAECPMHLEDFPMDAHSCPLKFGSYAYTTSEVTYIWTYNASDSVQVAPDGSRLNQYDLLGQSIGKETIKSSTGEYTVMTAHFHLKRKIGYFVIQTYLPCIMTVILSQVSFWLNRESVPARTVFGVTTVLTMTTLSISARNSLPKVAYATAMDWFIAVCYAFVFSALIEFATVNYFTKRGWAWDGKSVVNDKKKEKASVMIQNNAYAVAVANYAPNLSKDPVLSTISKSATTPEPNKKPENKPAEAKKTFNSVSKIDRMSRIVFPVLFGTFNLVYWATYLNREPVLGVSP
Experiment [11] addresses Sodium-dependent dopamine transporter (Homo sapiens, UniProt Q01959).

One may read the AC50 as the concentration at which the activity in the assay is half-maximal. Read a low AC50 as greater potency.
Note: assay procedure not described here.

Chain of D(3) dopamine receptor (P35462 whole entry): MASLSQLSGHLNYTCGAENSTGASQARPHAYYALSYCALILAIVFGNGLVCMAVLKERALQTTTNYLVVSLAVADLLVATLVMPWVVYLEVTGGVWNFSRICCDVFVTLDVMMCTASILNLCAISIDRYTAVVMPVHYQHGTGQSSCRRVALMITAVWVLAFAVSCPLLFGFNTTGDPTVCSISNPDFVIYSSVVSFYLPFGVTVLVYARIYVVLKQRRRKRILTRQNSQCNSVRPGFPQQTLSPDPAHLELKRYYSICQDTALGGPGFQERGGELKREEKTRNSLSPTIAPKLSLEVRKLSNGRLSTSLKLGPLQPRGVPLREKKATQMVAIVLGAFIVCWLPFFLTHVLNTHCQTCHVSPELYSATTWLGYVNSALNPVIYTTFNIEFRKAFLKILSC
Chain of Sodium-dependent dopamine transporter (Q01959 whole entry): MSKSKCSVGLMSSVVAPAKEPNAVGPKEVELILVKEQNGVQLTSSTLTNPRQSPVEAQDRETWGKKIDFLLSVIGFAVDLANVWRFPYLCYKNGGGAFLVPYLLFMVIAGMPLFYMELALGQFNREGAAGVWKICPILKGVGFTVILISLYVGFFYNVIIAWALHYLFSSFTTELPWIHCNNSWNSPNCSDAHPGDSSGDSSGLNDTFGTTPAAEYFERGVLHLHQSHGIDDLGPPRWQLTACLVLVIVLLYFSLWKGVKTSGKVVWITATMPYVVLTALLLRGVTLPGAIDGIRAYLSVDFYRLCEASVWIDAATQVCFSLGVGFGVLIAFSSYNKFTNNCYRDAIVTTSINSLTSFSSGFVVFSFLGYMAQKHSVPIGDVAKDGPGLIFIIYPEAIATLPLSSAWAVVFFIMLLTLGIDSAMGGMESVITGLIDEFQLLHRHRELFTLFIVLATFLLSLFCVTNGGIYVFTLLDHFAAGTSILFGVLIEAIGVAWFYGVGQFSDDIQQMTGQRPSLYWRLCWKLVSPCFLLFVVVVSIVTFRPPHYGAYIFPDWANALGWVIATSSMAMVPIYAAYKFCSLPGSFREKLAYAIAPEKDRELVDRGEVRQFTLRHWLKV
Chain of Kappa-type opioid receptor (P41145 whole entry): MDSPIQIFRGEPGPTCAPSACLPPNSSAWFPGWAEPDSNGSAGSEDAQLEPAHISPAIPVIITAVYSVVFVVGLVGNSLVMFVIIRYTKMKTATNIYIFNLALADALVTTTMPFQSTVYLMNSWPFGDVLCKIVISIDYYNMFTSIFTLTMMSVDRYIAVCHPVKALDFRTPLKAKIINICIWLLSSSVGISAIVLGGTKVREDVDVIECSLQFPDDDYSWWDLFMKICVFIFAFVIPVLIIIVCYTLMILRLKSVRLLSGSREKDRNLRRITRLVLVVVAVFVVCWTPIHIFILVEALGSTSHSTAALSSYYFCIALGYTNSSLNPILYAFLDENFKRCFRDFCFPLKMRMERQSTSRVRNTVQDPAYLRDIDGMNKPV
Chain of Histamine H3 receptor (Q9Y5N1 whole entry): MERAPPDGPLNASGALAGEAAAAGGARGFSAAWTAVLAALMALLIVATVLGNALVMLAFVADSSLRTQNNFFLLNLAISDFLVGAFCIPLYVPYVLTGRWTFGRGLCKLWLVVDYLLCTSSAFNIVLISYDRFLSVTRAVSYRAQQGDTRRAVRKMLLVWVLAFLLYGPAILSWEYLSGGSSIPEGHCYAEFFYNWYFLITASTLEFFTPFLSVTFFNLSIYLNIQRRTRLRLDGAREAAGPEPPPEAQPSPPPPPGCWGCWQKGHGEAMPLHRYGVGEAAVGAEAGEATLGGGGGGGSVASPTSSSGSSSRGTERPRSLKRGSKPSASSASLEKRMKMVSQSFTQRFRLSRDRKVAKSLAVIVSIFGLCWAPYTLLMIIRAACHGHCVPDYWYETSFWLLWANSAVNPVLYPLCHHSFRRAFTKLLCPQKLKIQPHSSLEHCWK
Chain of Cannabinoid receptor 1 (P21554 whole entry): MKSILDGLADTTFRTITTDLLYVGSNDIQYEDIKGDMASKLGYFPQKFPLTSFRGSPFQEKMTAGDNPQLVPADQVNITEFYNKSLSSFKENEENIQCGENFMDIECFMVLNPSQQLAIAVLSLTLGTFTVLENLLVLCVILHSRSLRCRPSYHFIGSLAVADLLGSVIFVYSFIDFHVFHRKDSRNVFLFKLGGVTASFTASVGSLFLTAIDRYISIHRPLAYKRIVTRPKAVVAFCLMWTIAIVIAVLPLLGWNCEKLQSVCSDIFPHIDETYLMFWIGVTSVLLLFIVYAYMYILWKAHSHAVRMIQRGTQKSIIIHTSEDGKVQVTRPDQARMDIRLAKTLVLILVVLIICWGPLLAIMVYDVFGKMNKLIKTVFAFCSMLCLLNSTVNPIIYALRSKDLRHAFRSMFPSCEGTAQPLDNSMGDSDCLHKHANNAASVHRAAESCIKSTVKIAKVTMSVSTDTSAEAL

Regarding `CO/N=C(\C(=O)N[C@@H]1C(=O)N2C(C(=O)OCOC(=O)C(C)(C)C)=C(C)CS[C@H]12)c1csc(N)n1`, the AC50 (in [1]; in experiment [2]; in [3]; at Cannabinoid receptor 1; on D(3) dopamine receptor; in [4]) was greater than 30 µM in each case. Moreover, the AC50 (in [5]; on Histamine H3 receptor; in experiment [6]; in [7]; in experiment [8]; in experiment [9]) was greater than 30 µM each time.

`CCCC1C(=O)N2C(N(C)C)=Nc3ccc(C)cc3N2C1=O` (stereo not given) [APAZONE]: the AC50 (in experiment [2]; at D(3) dopamine receptor; in [10]; on Histamine H3 receptor; in experiment [6]) was greater than 30 µM in each case.

`O=C(Cn1ccnc1[N+](=O)[O-])NCc1ccccc1` [BENZNIDAZOLE]: the AC50 (in [1]; in experiment [2]; in experiment [3]; at Cannabinoid receptor 1; on D(3) dopamine receptor; in experiment [4]) was greater than 30 µM each time. For the same compound, the AC50 in experiment [5] is greater than 30 µM; on Histamine H3 receptor, greater than 30 µM; in [6] it was greater than 30 µM; in [7], greater than 30 µM; in experiment [8], 21 µM; in experiment [11], greater than 30 µM. This compound displayed an AC50 in experiment [9] greater than 30 µM.

With `CN(Cc1cc(Br)cc(Br)c1N)C1CCCCC1` [BROMHEXINE], the AC50 (in experiment [2]; at D(3) dopamine receptor; in [10]; on Histamine H3 receptor; in experiment [6]) was greater than 30 µM in each case.

For the compound `COCC1=C(C(=O)OC(C)OC(=O)OC(C)C)N2C(=O)[C@@H](NC(=O)/C(=N\OC)c3csc(N)n3)[C@H]2SC1` (stereo not given in full) [CEFPODOXIME PROXETIL], the AC50 (in experiment [1]; in experiment [2]; in [3]; at Cannabinoid receptor 1; on D(3) dopamine receptor; in [4]) was greater than 30 µM throughout. Moreover, the AC50 (in experiment [5]; on Histamine H3 receptor; in [6]; in experiment [7]; in experiment [8]; in experiment [9]) was greater than 30 µM throughout.

`NS(=O)(=O)c1cc2c(cc1Cl)NC(CC1CCCC1)NS2(=O)=O` (stereo not given) [CYCLOPENTHIAZIDE]: the AC50 (in [1]; in experiment [2]; in [3]; on Cannabinoid receptor 1; on D(3) dopamine receptor; in [4]) was greater than 30 µM each time. The AC50 (in experiment [5]; at Histamine H3 receptor; in [6]; in [7]; in [8]; in experiment [9]) was greater than 30 µM throughout.

Regarding `N/N=c1/cc2c(n[nH]1)CCN(C(=O)c1ccccc1)C2` [ENDRALAZINE], the AC50 (in experiment [1]; in [2]; in experiment [3]; at Cannabinoid receptor 1; at D(3) dopamine receptor; in [4]) was greater than 30 µM in each case. Moreover, the AC50 (in [5]; at Histamine H3 receptor; in experiment [6]; in experiment [7]; in experiment [8]; in experiment [9]) was greater than 30 µM in each case.

Turning to `CN1C(=O)N(C)C2C1N(C)C(=O)N2C` (stereo not given) [MEBICAR], the AC50 was greater than 30 µM in experiment [1]; greater than 30 µM in experiment [2]; 14 µM in experiment [3]; greater than 30 µM at Cannabinoid receptor 1; greater than 30 µM on D(3) dopamine receptor; greater than 30 µM in [4]. For the same compound, the AC50 (in experiment [5]; on Histamine H3 receptor; in [6]; in experiment [7]; in experiment [8]; in experiment [9]) was greater than 30 µM in each case.

Regarding `Nc1ccc(/N=N/c2ccccc2)c(N)n1` [PHENAZOPYRIDINE], the AC50 was greater than 30 µM in experiment [1]; greater than 30 µM in experiment [2]; 3.7 µM in experiment [3]; greater than 30 µM on Cannabinoid receptor 1; greater than 30 µM on D(3) dopamine receptor; greater than 30 µM in experiment [4]. Also, the AC50 in experiment [5] is greater than 30 µM; at Histamine H3 receptor, greater than 30 µM; in experiment [6], greater than 30 µM; in experiment [7], 1.91 µM; in experiment [8], 3.3 µM; in [9] it was greater than 30 µM.

In the case of `O=C(O)CCn1c2c(c3ccccc31)C[C@H](NS(=O)(=O)c1ccc(F)cc1)CC2` [RAMATROBAN], the AC50 in experiment [1] is greater than 10 µM; in [2], greater than 30 µM; in [3], greater than 10 µM; on D(3) dopamine receptor, greater than 30 µM; in [4], greater than 30 µM; in [5], greater than 10 µM. For the same compound, the AC50 is greater than 30 µM at Histamine H3 receptor; greater than 30 µM in experiment [6]; greater than 30 µM in [7]; greater than 10 µM in [8]; greater than 30 µM in experiment [11]; greater than 10 µM in [9].

`O=C1CCC(N2C(=O)c3ccccc3C2=O)C(=O)N1` (stereo not given) [THALIDOMIDE]: the AC50 in experiment [1] was greater than 10 µM; in experiment [2], greater than 30 µM; in experiment [3], greater than 10 µM; at Cannabinoid receptor 1, greater than 30 µM; at D(3) dopamine receptor it was greater than 30 µM; in [4], greater than 30 µM. Also, the AC50 in experiment [5] was greater than 10 µM; at Histamine H3 receptor it was greater than 30 µM; in experiment [6], greater than 30 µM; in experiment [7], greater than 30 µM; in experiment [8], greater than 10 µM; in experiment [11], greater than 10 µM. In experiment [9], this compound gave an AC50 greater than 10 µM.

For the origin of these results see ChEMBL document CHEMBL5291721, “A preclinical secondary pharmacology resource illuminates target-adverse drug reaction associations of marketed drugs” (Nat Commun, 2023).
